Key:
Type in all cases: cell-based
[1] = test system: Human gastric cancer cells NCI-N87; test: Cytotoxicity test for compounds (CellTiter-Glo cell proliferation inhibition); settings: Homo sapiens, NCI-N87, 72 h, 3 days of incubation; CellTiter-Glo; read-out: NCI-87/IC50
Protocol: (§1) Biological Test Example 1: Cytotoxicity Test for Compounds
(§2) • 96-well clear flat-bottom white plate (Corning, #3610) • RPMI1640 culture medium (Gibco, #A10491-01) • Fetal Bovine Serum (Sigma-Aldrich, #F8687-500ML) • CellTiter-Glo® Luminescent Cell Viability Assay (Promega, # G7572/G7571)
(§3) Human gastric cancer cells NCI-N87 (ATCC, Cat. No.: CRL-5822), human breast cancer cells MDA-MB-468 (Cell Bank of the Committee for Type Culture Collection of the Chinese Academy of Sciences, Cat. No.: TCHu136), and human breast cancer cells KPL-4 (Nanjing Cobioer Biosciences Co., Ltd., Cat. No.: CBP60379) were washed with PBS and digested with 0.25% Trypsin-EDTA trypsin for about 3-10 min. The digestion was terminated with a complete cell culture medium. The cells were centrifuged at 1000 rpm for 5 min, and the supernatant was discarded. The cells were resuspended in a complete cell culture medium. The cell number was counted using a cell counter, and the cells were adjusted to the desired density. 90.0 µL of the cell suspension was added to each well at 3000 cells/well. The cell plate was incubated in a cell incubator at 37°C with 5% CO2 overnight.
(§4) In the experiment, a DMSO control group and test sample groups were set. The cell plate was removed from the incubator to observe cell adherence. After the cells adhered, 10.00 µL of the sample (starting from a final concentration of 10 µM, 5-fold dilution, 9 concentrations) was added to each well. After the mixture was gently shaken uniformly, the plate was incubated in the incubator.
(§5) After 3 days of incubation, 100.0 µL/well of CellTiter-Glo™ (Promega, Cat. No.: G7572/G7571) working solution was added. The plate was shaken on a thermostatic shaker to lyse the cells. After 10 min, the plate was read on a microplate reader.
(§6) Data analysis: GraphPad Prism 8.0 software was used to plot a graph with the Log value of the sample concentration as the abscissa and the Inhibition% as the ordinate. The data were analyzed by Nonlinear regression (curve fit) to obtain the IC50 value of each test sample. Table 1. Inhibition activity of compounds of the present disclosure on cell proliferation

[2] = test system: human breast cancer cells KPL-4; test: as above; settings: Homo sapiens, KPL4, 72 h; 3 days of incubation; CellTiter-Glo; read-out: KPL-4/IC50
Protocol: as §1, §2, §3, §4, §5, §6

[3] = test system: human breast cancer cells MDA-MB-468; test: as above; settings: Homo sapiens, MDA-MB-468, 72 h, 3 days of incubation; CellTiter-Glo; read-out: MDA-MD-468/IC50
Protocol: as §1, §2, §3, §4, §5, §6

[4] = test system: CD34^+ hematopoietic stem/progenitor cells; test: Hematologic toxicity of compounds (CD34+ HSC viability, CTG); settings: 240 h; cytotoxic drugs; treatment for 10 days; CTG cell viability
Protocol: Experimental objective: The effects of cytotoxic drugs on the differentiation and development of CD34^+ hematopoietic stem/progenitor cells into the megakaryocytic lineage were investigated, so as to evaluate their potential hematologic toxicity of causing thrombocytopenia.
Experimental design: After resuscitation, bone marrow-mobilized peripheral blood-derived HSCs were seeded at 2000 cells/well/180 µL in an ultra-low attachment 96-well round-bottom plate and stabilized for 4 h. The cells were treated with compounds by performing a 5-fold gradient dilution starting from the highest dose of 1 µM, resulting in a total of 9 concentration points, and this treatment was maintained continuously for 10 days. Cell viability was detected using the CTG reagent (CellTiter-Glo luminescent cell viability detection kit, manufacturer: Promega, Cat. No.: G7571). Table 2. Hematologic toxicity test results of cytotoxic drugs

Structure (SMILES) | IC50 [1] [nM] | IC50 [2] [nM] | IC50 [3] [nM] | IC50 [4] [nM]
C#CCN(CCc1cccc(N)c1)C(=O)[C@H](C)[C@@H](OC)[C@@H]1CCCN1C(=O)C[C@@H](OC)[C@H]([C@@H](C)CC)N(C)C(=O)[C@@H](NC(=O)[C@H](C(C)C)N(C)C)C(C)C [Example 6, (S)-N-((3R,4S,5S)-1-((S)-2-((1R,2R)-3-((3-aminophenethyl)(prop-2-yn-1-yl)amino)-1-methoxy-2-methyl-3-oxopropyl)pyrrolidin-1-yl)-3-methoxy-5-methyl-1-oxoheptan-4-yl)-2-((S)-2-(dimethylamino)-3-methylbutanamido)-N,3-dimethylbutanamide] | 3.93 | 2.96 | 12.6 | 3.96
CC[C@H](C)[C@@H]([C@@H](CC(=O)N1CCC[C@H]1[C@H](OC)[C@@H](C)C(=O)N(CCc1cccc(N)c1)OC)OC)N(C)C(=O)[C@@H](NC(=O)[C@H](C(C)C)N(C)C)C(C)C [Example 7, (S)-N-((3R,4S,5S)-1-((S)-2-((1R,2R)-3-((3-aminophenethyl)(methoxy)amino)-1-methoxy-2-methyl-3-oxopropyl)pyrrolidin-1-yl)-3-methoxy-5-methyl-1-oxoheptan-4-yl)-2-((S)-2-(dimethylamino)-3-methylbutanamido)-N,3-dimethylbutanamide] | 0.89 | 0.45 | 13.4 | 0.144
